Reference: PubChem BioAssay (NCI)
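GI50 is the concentration that inhibits growth by half. TGI denotes the concentration required for complete inhibition of growth.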

Legend:
Experiment in all cases: inhibition of tumour cell growth, NCI panel, 384-well format
RPMI-8226 leukemia = tested on: RPMI-8226 leukemia
MOLT-4 leukemia = tested on: MOLT-4 leukemia
NCI/ADR-RES ovarian = tested on: NCI/ADR-RES ovarian
TK-10 renal = tested on: TK-10 renal
SN12C renal = tested on: SN12C renal
NCI-H226 lung = tested on: NCI-H226 lung
OVCAR-3 ovarian = tested on: OVCAR-3 ovarian
UO-31 renal = tested on: UO-31 renal
HL-60(TB) leukemia = tested on: HL-60(TB) leukemia
786-0 renal = tested on: 786-0 renal
T-47D breast = tested on: T-47D breast
OVCAR-5 ovarian = tested on: OVCAR-5 ovarian
ACHN renal = tested on: ACHN renal
HS 578T breast = tested on: HS 578T breast
HCT-15 colon = tested on: HCT-15 colon
SF-268 CNS = tested on: SF-268 CNS
EKVX NSCLC = tested on: EKVX NSCLC
RXF 393 renal = tested on: RXF 393 renal
COLO 205 colon = tested on: COLO 205 colon
PC-3 prostate = tested on: PC-3 prostate
OVCAR-8 ovarian = tested on: OVCAR-8 ovarian
SK-OV-3 ovarian = tested on: SK-OV-3 ovarian
SR leukemia = tested on: SR leukemia
MALME-3M melanoma = tested on: MALME-3M melanoma
NCI-H322M lung = tested on: NCI-H322M lung
NCI-H23 lung = tested on: NCI-H23 lung
HOP-62 NSCLC = tested on: HOP-62 NSCLC
KM12 colon = tested on: KM12 colon
SNB-19 CNS = tested on: SNB-19 CNS
SW-620 colon = tested on: SW-620 colon
K-562 leukemia = tested on: K-562 leukemia
HT29 colon = tested on: HT29 colon
A549 NSCLC = tested on: A549 NSCLC
MDA-MB-468 breast = tested on: MDA-MB-468 breast
NCI-H522 lung = tested on: NCI-H522 lung
SNB-75 CNS = tested on: SNB-75 CNS
LOX IMVI melanoma = tested on: LOX IMVI melanoma
SK-MEL-5 melanoma = tested on: SK-MEL-5 melanoma
SF-539 CNS = tested on: SF-539 CNS
OVCAR-4 ovarian = tested on: OVCAR-4 ovarian
A498 renal = tested on: A498 renal
CAKI-1 renal = tested on: CAKI-1 renal
MCF7 breast = tested on: MCF7 breast
MDA-MB-231 breast = tested on: MDA-MB-231 breast
HOP-92 NSCLC = tested on: HOP-92 NSCLC
BT-549 breast = tested on: BT-549 breast
DU-145 prostate = tested on: DU-145 prostate
IGROV1 ovarian = tested on: IGROV1 ovarian
U251 glioblastoma = tested on: U251 glioblastoma
HCT-116 colon = tested on: HCT-116 colon
SF-295 CNS = tested on: SF-295 CNS
HCC-2998 colon = tested on: HCC-2998 colon
M14 melanoma = tested on: M14 melanoma
MDA-MB-435 melanoma = tested on: MDA-MB-435 melanoma
NCI-H460 NSCLC = tested on: NCI-H460 NSCLC
UACC-257 melanoma = tested on: UACC-257 melanoma
CCRF-CEM leukemia = tested on: CCRF-CEM leukemia
SK-MEL-28 melanoma = tested on: SK-MEL-28 melanoma

Q: `C[C@H](Nc1ccc(C#N)n(C)c1=O)c1cc2cc(Cl)ccc2[nH]c1=O` was tested. Which GI50 (RPMI-8226 leukemia) did it give?
A: 11.4 µM

Q: And the TGI (RPMI-8226 leukemia)?
A: 24.4 µM

Q: And the GI50 (MOLT-4 leukemia)?
A: 12.4 µM

Q: And the TGI (MOLT-4 leukemia)?
A: 25.1 µM

Q: And the GI50 (NCI/ADR-RES ovarian)?
A: 19.8 µM

Q: And the TGI (NCI/ADR-RES ovarian)?
A: 48.6 µM

Q: What about the GI50 (TK-10 renal) of the same molecule?
A: 32.5 µM

Q: What about the TGI (TK-10 renal) of the same molecule?
A: > 100 µM

Q: And the GI50 (SN12C renal)?
A: 31.4 µM

Q: What about the TGI (SN12C renal) of the same molecule?
A: > 100 µM

Q: What about the GI50 (NCI-H226 lung) of the same molecule?
A: 13 µM

Q: And the TGI (NCI-H226 lung)?
A: 31 µM

Q: And the GI50 (OVCAR-3 ovarian)?
A: 17.8 µM

Q: What about the TGI (OVCAR-3 ovarian) of the same molecule?
A: 40.7 µM

Q: And the GI50 (UO-31 renal)?
A: 33.8 µM

Q: And the TGI (UO-31 renal)?
A: > 100 µM

Q: What about the GI50 (HL-60(TB) leukemia) of the same molecule?
A: 20.9 µM

Q: What about the TGI (HL-60(TB) leukemia) of the same molecule?
A: 35.3 µM

Q: And the GI50 ([…]-0 renal)?
A: 34 µM

Q: And the TGI (786-0 renal)?
A: > 100 µM

Q: What about the GI50 (T-47D breast) of the same molecule?
A: 22.2 µM

Q: What about the TGI (T-47D breast) of the same molecule?
A: 86.9 µM

Q: And the GI50 (OVCAR-5 ovarian)?
A: 60.8 µM

Q: What about the TGI (OVCAR-5 ovarian) of the same molecule?
A: > 100 µM

Q: What about the GI50 (ACHN renal) of the same molecule?
A: 30.8 µM

Q: And the TGI (ACHN renal)?
A: > 100 µM

Q: And the GI50 (HS 578T breast)?
A: 21.4 µM

Q: And the TGI (HS 578T breast)?
A: 74 µM

Q: And the GI50 (HCT-15 colon)?
A: 31.4 µM

Q: And the TGI (HCT-15 colon)?
A: > 100 µM

Q: What about the GI50 (SF-268 CNS) of the same molecule?
A: 29.3 µM

Q: What about the TGI (SF-268 CNS) of the same molecule?
A: > 100 µM

Q: What about the GI50 (EKVX NSCLC) of the same molecule?
A: 26.3 µM

Q: What about the TGI (EKVX NSCLC) of the same molecule?
A: > 100 µM

Q: And the GI50 (RXF 393 renal)?
A: 19.1 µM

Q: And the TGI (RXF 393 renal)?
A: 53 µM

Q: And the GI50 (COLO 205 colon)?
A: 61.4 µM

Q: What about the TGI (COLO 205 colon) of the same molecule?
A: > 100 µM

Q: And the GI50 (PC-3 prostate)?
A: 19.9 µM

Q: And the TGI (PC-3 prostate)?
A: 76.1 µM

Q: What about the GI50 (OVCAR-8 ovarian) of the same molecule?
A: 36.2 µM

Q: What about the TGI (OVCAR-8 ovarian) of the same molecule?
A: > 100 µM

Q: What about the GI50 (SK-OV-3 ovarian) of the same molecule?
A: 27.9 µM

Q: What about the TGI (SK-OV-3 ovarian) of the same molecule?
A: > 100 µM

Q: What about the GI50 (SR leukemia) of the same molecule?
A: 20.1 µM

Q: What about the TGI (SR leukemia) of the same molecule?
A: 39.4 µM

Q: What about the GI50 (MALME-3M melanoma) of the same molecule?
A: 26.7 µM

Q: And the TGI (MALME-3M melanoma)?
A: 78.8 µM

Q: And the GI50 (NCI-H322M lung)?
A: 33.2 µM

Q: What about the TGI (NCI-H322M lung) of the same molecule?
A: > 100 µM

Q: What about the GI50 (NCI-H23 lung) of the same molecule?
A: 25.3 µM

Q: And the TGI (NCI-H23 lung)?
A: 75.8 µM

Q: What about the GI50 (HOP-62 NSCLC) of the same molecule?
A: 16.4 µM

Q: What about the TGI (HOP-62 NSCLC) of the same molecule?
A: 42.9 µM

Q: What about the GI50 (KM12 colon) of the same molecule?
A: 39.1 µM

Q: And the TGI (KM12 colon)?
A: > 100 µM

Q: And the GI50 (SNB-19 CNS)?
A: 41.6 µM

Q: And the TGI (SNB-19 CNS)?
A: > 100 µM

Q: And the GI50 (SW-620 colon)?
A: 52.9 µM

Q: What about the TGI (SW-620 colon) of the same molecule?
A: > 100 µM

Q: What about the GI50 (K-562 leukemia) of the same molecule?
A: 35.1 µM

Q: What about the TGI (K-562 leukemia) of the same molecule?
A: > 100 µM

Q: What about the GI50 (HT29 colon) of the same molecule?
A: 42.6 µM

Q: What about the TGI (HT29 colon) of the same molecule?
A: > 100 µM

Q: What about the GI50 (A549 NSCLC) of the same molecule?
A: 27.7 µM

Q: And the TGI (A549 NSCLC)?
A: > 100 µM

Q: What about the GI50 (MDA-MB-468 breast) of the same molecule?
A: 12.7 µM

Q: What about the TGI (MDA-MB-468 breast) of the same molecule?
A: 30.1 µM

Q: What about the GI50 (NCI-H522 lung) of the same molecule?
A: 27.6 µM

Q: What about the TGI (NCI-H522 lung) of the same molecule?
A: > 100 µM

Q: What about the GI50 (SNB-75 CNS) of the same molecule?
A: 20.3 µM

Q: And the TGI (SNB-75 CNS)?
A: 73.7 µM

Q: And the GI50 (LOX IMVI melanoma)?
A: 26.4 µM

Q: And the TGI (LOX IMVI melanoma)?
A: 70.7 µM

Q: And the GI50 (SK-MEL-5 melanoma)?
A: 15.4 µM

Q: What about the TGI (SK-MEL-5 melanoma) of the same molecule?
A: 29 µM

Q: What about the GI50 (SF-539 CNS) of the same molecule?
A: 32.3 µM

Q: And the TGI (SF-539 CNS)?
A: > 100 µM

Q: What about the GI50 (OVCAR-4 ovarian) of the same molecule?
A: 16.1 µM

Q: And the TGI (OVCAR-4 ovarian)?
A: 49.6 µM

Q: What about the GI50 (A498 renal) of the same molecule?
A: 29.6 µM

Q: What about the TGI (A498 renal) of the same molecule?
A: 98 µM

Q: And the GI50 (CAKI-1 renal)?
A: 31.1 µM

Q: What about the TGI (CAKI-1 renal) of the same molecule?
A: > 100 µM

Q: And the GI50 (MCF7 breast)?
A: 24 µM

Q: What about the TGI (MCF7 breast) of the same molecule?
A: > 100 µM

Q: What about the GI50 (MDA-MB-231 breast) of the same molecule?
A: 34.5 µM

Q: And the TGI (MDA-MB-231 breast)?
A: > 100 µM

Q: What about the GI50 (HOP-92 NSCLC) of the same molecule?
A: 22.8 µM

Q: And the TGI (HOP-92 NSCLC)?
A: 90.1 µM

Q: What about the GI50 (BT-549 breast) of the same molecule?
A: 19.4 µM

Q: And the TGI (BT-549 breast)?
A: 54.2 µM

Q: What about the GI50 (DU-145 prostate) of the same molecule?
A: 29.4 µM

Q: And the TGI (DU-145 prostate)?
A: > 100 µM

Q: And the GI50 (IGROV1 ovarian)?
A: 17 µM

Q: What about the TGI (IGROV1 ovarian) of the same molecule?
A: 42.8 µM

Q: What about the GI50 (U251 glioblastoma) of the same molecule?
A: 31.2 µM

Q: And the TGI (U251 glioblastoma)?
A: > 100 µM

Q: And the GI50 (HCT-116 colon)?
A: 29.3 µM

Q: And the TGI (HCT-116 colon)?
A: > 100 µM

Q: What about the GI50 (SF-295 CNS) of the same molecule?
A: 13.6 µM

Q: And the TGI (SF-295 CNS)?
A: 36.8 µM

Q: What about the GI50 (HCC-2998 colon) of the same molecule?
A: 16.4 µM

Q: What about the TGI (HCC-2998 colon) of the same molecule?
A: 52.3 µM

Q: And the GI50 (M14 melanoma)?
A: 46 µM

Q: What about the TGI (M14 melanoma) of the same molecule?
A: > 100 µM

Q: What about the GI50 (MDA-MB-435 melanoma) of the same molecule?
A: 30.6 µM

Q: What about the TGI (MDA-MB-435 melanoma) of the same molecule?
A: 69.6 µM

Q: What about the GI50 (NCI-H460 NSCLC) of the same molecule?
A: 19.3 µM

Q: And the TGI (NCI-H460 NSCLC)?
A: 52 µM

Q: What about the GI50 (UACC-257 melanoma) of the same molecule?
A: 20.6 µM

Q: And the TGI (UACC-257 melanoma)?
A: 38.4 µM

Q: And the GI50 (CCRF-CEM leukemia)?
A: 25.9 µM

Q: What about the TGI (CCRF-CEM leukemia) of the same molecule?
A: 60.7 µM

Q: And the GI50 (SK-MEL-28 melanoma)?
A: 36.2 µM

Q: And the TGI (SK-MEL-28 melanoma)?
A: 94 µM
